pEC50, pIC50: −log10 of the molar value.

The results in this text go back to ChEMBL document CHEMBL4732271, “Novel Substituted Thiadiazoles as Splicing Modulators for Modulating Splicing of mRNA and Uses Thereof for Treating Diseases” (ACS Med Chem Lett, 2021).

Test [1] deals with SMN2 pre-mRNA. The test can be described thus: Modulation of SMN2 mRNA FL splicing in human spinal muscular atrophy patient fibroblasts incubated for 24 hrs by qPCR analysis. In kind it is tissue-based.
The target in test [2] is SMN2 pre-mRNA. The experiment in a line: Modulation of SMN2 mRNA FL splicing in human spinal muscular atrophy patient fibroblasts assessed as SMN2 protein potency incubated for 48 hrs by mesoscale discovery assay.
The target in test [3] is SMN2 pre-mRNA. The experiment in a line: Modulation of SMN2 mRNA D7 splicing in human spinal muscular atrophy patient fibroblasts incubated for 24 hrs by qPCR analysis. In kind it is tissue-based. In general terms: In qPCR the cycle at which signal appears reflects the starting amount.

Take `CN(c1nnc(-c2cc(F)c(-c3cnn(C)c3)cc2O)s1)[C@@H]1C[C@H]2CC[C@H](N2)[C@@H]1F`: the results for the pEC50 on SMN2 pre-mRNA [1] and at SMN2 pre-mRNA [2] were 7.80 and 11.00, respectively. The compound also showed a pIC50 against SMN2 pre-mRNA [3] of 11.00.

In the case of `CN(c1nnc(-c2ccc(-c3cn[nH]c3)cc2O)s1)[C@@H]1C[C@H]2CC[C@H](N2)[C@@H]1F`, the negative-log EC50 (pEC50) at SMN2 pre-mRNA [1] and at SMN2 pre-mRNA [2] was 11.00 throughout. Further, the negative logarithm of the IC50 (pIC50) on SMN2 pre-mRNA [3] was 11.00.

Turning to `COc1cc(-c2ccc(-c3nnc(N(C4CC4)[C@@H]4C[C@H]5CC[C@H](N5)C4F)s3)c(O)c2)cc(F)n1` (stereo partly drawn), the pEC50 at SMN2 pre-mRNA [1] was 7.80; on SMN2 pre-mRNA [2], 11.00. Also, at SMN2 pre-mRNA [3], the pIC50 is 11.00.

Consider `CN(c1nnc(-c2ccc(-c3cnn(C)c3)cc2O)s1)[C@H]1C[C@@H]2CCC[C@@H](N2)[C@H]1F`, for which the pEC50 on SMN2 pre-mRNA [1] is 7.80; on SMN2 pre-mRNA [2] it was 11.00. The compound further gave a negative logarithm of the IC50 (pIC50) against SMN2 pre-mRNA [3] of 11.00.

Take `CN(c1nnc(-c2ccc(-c3cnn(CF)c3)cc2O)s1)[C@@H]1C[C@H]2CC[C@H](N2)[C@@H]1F`: the negative-log EC50 (pEC50) is 7.80 at SMN2 pre-mRNA [1] and 11.00 at SMN2 pre-mRNA [2]. In addition, the negative logarithm of the IC50 (pIC50) against SMN2 pre-mRNA [3] is 7.80.

Take `CN(c1nnc(-c2ccc(-c3cnn(C)c3)cc2O)s1)[C@@H]1C[C@H]2CC[C@H](N2)[C@@H]1F`: the pEC50 on SMN2 pre-mRNA [1] was 7.80; at SMN2 pre-mRNA [2], 11.00. The pIC50 against SMN2 pre-mRNA [3] is 11.00.

In general, pEC50 refers to the EC50 on a negative log10 scale, so that one unit is a factor of ten. What is called pIC50 is the IC50 on a negative log10 scale, so that one unit is a factor of ten. A lower pIC50 goes with a large IC50.
